Test results from article PMC3622084 (Biochemistry, 2013).
pEC50, pIC50: −log10 of the molar value.

Legend:
Test in all cases: Clark electrode O2 uptake, cytochrome c / ascorbate / TMPD
Assay type in all cases: biochemical
[1] = target: T1, Rhodobacter sphaeroides cytochrome c oxidase (RsCcO) (Cereibacter sphaeroides, UniProt P33517+Q03736, Q03736:E101A)
[2] = target: T1, Rhodobacter sphaeroides cytochrome c oxidase (RsCcO); remark: listed apart in the source
[3] = target: Rhodobacter sphaeroides cytochrome c oxidase (RsCcO) (Cereibacter sphaeroides, UniProt P33517+Q03736); conditions: read-out: K1/2; inhibition; 0.01% DDM, pH 7.4, 30 μM bovine cytochrome c
Rhodobacter sphaeroides cytochrome c oxidase (RsCcO) (Cereibacter sphaeroides, UniProt P33517+Q03736), sequence (P33517 whole entry): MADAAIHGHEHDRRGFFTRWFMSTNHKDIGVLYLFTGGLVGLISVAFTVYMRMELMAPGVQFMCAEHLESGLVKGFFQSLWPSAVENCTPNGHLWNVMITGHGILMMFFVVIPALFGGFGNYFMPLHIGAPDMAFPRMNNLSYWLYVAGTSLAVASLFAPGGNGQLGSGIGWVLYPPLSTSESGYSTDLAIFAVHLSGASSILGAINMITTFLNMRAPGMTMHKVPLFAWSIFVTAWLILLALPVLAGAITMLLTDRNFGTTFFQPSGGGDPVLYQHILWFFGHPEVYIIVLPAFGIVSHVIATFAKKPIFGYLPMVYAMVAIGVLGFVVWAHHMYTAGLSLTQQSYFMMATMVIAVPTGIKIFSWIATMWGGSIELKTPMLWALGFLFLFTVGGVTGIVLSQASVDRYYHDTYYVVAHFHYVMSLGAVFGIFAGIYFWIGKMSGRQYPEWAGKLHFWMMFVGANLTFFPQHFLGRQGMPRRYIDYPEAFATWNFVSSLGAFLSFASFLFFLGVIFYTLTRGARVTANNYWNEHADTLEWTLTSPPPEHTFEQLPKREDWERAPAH
Rhodobacter sphaeroides cytochrome c oxidase (RsCcO) (Cereibacter sphaeroides, UniProt P33517+Q03736), sequence (Q03736 26-303 limits assumed): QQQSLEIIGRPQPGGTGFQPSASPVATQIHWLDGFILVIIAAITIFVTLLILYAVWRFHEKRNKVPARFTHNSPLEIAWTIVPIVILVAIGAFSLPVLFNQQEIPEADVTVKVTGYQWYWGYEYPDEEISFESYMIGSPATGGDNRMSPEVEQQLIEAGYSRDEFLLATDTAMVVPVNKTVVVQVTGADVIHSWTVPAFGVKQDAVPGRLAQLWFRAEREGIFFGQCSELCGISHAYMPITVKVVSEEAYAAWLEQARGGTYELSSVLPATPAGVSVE

T1 sequence (P33517 whole entry): as the sequence (P33517 whole entry) above
T1 sequence (Q03736 26-303 E101A limits assumed): as the sequence (Q03736 26-303 limits assumed) above, with E76A counted along it

| Compound | pEC50 [1] | other results |
| --- | --- | --- |
| CC(C)CCC[C@@H](C)[C@H]1CC[C@H]2[C@@H]3CC=C4C[C@@H](OC(=O)CCC(=O)O)CC[C@]4(C)[C@H]3CC[C@]12C [cholesteryl hemisuccinate] | ~4.10 | – |
| CC1=C(/C=C/C(C)=C/C=C/C(C)=C/C(=O)O)C(C)(C)CCC1 [retinoic acid] | ~5.10 | – |
| C=CC1=C(C)c2cc3[nH]c(cc4nc(cc5[nH]c(cc1n2)c(C)c5CCC(=O)O)C(CCC(=O)O)=C4C)c(C)c3C=C [protoporphyrin IX] | ~4.85 | – |
| C[C@H](CCC(=O)O)[C@H]1CC[C@H]2[C@@H]3[C@H](O)C[C@@H]4C[C@H](O)CC[C@]4(C)[C@H]3C[C@H](O)[C@]12C [cholate] | 3.70 | – |
| CCCCCCCC/C=C\CCCCCCCC(=O)OC[C@@H](O)COP(=O)([O-])OCC[N+](C)(C)C [lyso-oleoyl phosphatidylcholine] | – | pIC50 [2]: ~4.77 |
| CC(C)CCCC(C)CCCC(C)CCCC(C)CC(=O)O (centres unmarked) [phytanic acid] | ~5.40 | – |
| CHOBIMALT | – | pIC50 [3]: ~3.70 |
| C=CC1=C(C)/C(=C/c2[nH]c(Cc3[nH]c(/C=C4\NC(=O)C(C)=C4C=C)c(C)c3CCC(=O)O)c(CCC(=O)O)c2C)NC1=O [bilirubin] | ~4.30 | – |
